Assay results reported in patent US9359308B2, “Pyrazine kinase inhibitors” (Portola Pharmaceuticals, Inc., priority 2011, dated 2016).
pIC50: −log10 of the molar value.

Biological target: T1, full length active recombinant SYK enzyme (Homo sapiens, UniProt P43405)
T1 construct: full length active recombinant SYK enzyme (Millipore, Calif.); purchased Millipore
Assay: Inhibition of Syk tyrosine phosphorylation activity (LANCE TR-FRET kinase assay)
Format: biochemical
Settings: activity in the Syk assays, class symbols
How it was run: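 1 nM full-length active recombinant SYK phosphorylated 550 nM biotin-DEEDYESP-OH with 100 μM ATP in 50 mM Tris pH 7.5, 5 mM MgCl2, 1 mM DTT and 3% DMSO for 1 h at room temperature. After EDTA quench, Eu-anti-phosphotyrosine/SA-APC TR-FRET was read after 1 h. IC50s came from non-linear regression.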

`NC(=O)c1ncc(N[C@@H]2CCCC(F)(F)[C@@H]2N)nc1Nc1ccc2c(c1)COC2` [Example 452, 5-(((1R,2R)-2-amino-3,3-difluorocyclohexyl)amino)-3-((1,3-dihydroisobenzofuran-5-yl)amino)pyrazine-2-carboxamide] and `NC(=O)c1ncc(N[C@@H]2CCCC(F)(F)[C@@H]2N)nc1Nc1ccc2c(c1)CCOC2` [Example 453, 5-(((1R,2R)-2-amino-3,3-difluorocyclohexyl)amino)-3-(isochroman-6-ylamino)pyrazine-2-carboxamide] fall in the same range of pIC50: 8.00 to 9.00 for the first, 8.00 to 9.00 for the second.

For `NC(=O)c1ncc(N[C@@H]2CCCC(F)(F)[C@@H]2N)nc1Nc1ccc2c(c1)CCC2` [Example 454, 5-(((1R,2R)-2-amino-3,3-difluorocyclohexyl)amino)-3-((2,3-dihydro-1H-inden-5-yl)amino)pyrazine-2-carboxamide], the pIC50 was 7.00 to 8.00.
